The results in this text go back to patent US20100197765A1, “METHOD FOR PROMOTING THE EXPRESSION OF P53, AND P53 EXPRESSION PROMOTER FOR USE IN THE METHOD” (THE UNIVERSITY OF TOKUSHIMA, priority 2007, published 2010).

The subject of one experiment is HCT116 cells. In words: p53 mRNA, vegf IresRNA and vegf mRNA in HCT116 cells exposed to genotoxic stress (Northern). It is filed as cell-based, human. The procedure:
HCT116 cells (parent cells) were exposed to genotoxic stress that upregulates the expression of p53 mRNA. […] Also, HCT116 cells were exposed to UV-B for 1 minute. Then, after placing them under non-exposed conditions for a predetermined time (6, 12 hours), the expressions were examined in the same manner as in the above.

For a further experiment, the system named is p53. In words: p53 mRNA (quantitative RT-PCR) and protein in HCT116 clones stably expressing vegf IresRNA, cisplatin treated. As to conditions: mock HCT116 cells, cisplatin 5 μg/mL, 6 h, 12 h vs 0 h. It is filed as cell-based, human. From the text: Full length cDNAs of vegf IresRNA having a sequence from base 600 to base 879 in 5′ UTR of vegf mRNA of SEQ ID NO. 1 were inserted into plasmid vectors pcDNA3.1 (Invitrogen). Thus, vegf IresRNA expression vectors (pcDNA-vegf Ires) were produced. These vegf IresRNA expression vectors (pcDNA-vegf Ires) were transfected into HCT116 (parent cells, wild-type p53), and two types of cell clones that stably overexpress vegf IresRNA were selected with an antibiotic G418. The thus-established two types of vegf IresRNA-expressing cells are hereinafter referred to as vegf Ires-#1 and vegf Ires-#2. Furthermore, as a mock treatment, plasmid vectors pcDNA3.1 lacking the above-described insert were transfected into HCT116 cells, and the transfect cell clones were selected with the antibiotic G418. These cell clones were hereinafter referred to as a mock. Then, expression of vegf IresRNA in these cell clones was examined by Northern blotting.
Subsequently, each of these vegf IresRNA-stably expressing cell strains was treated in the presence or absence of 5 μg/mL of an anticancer agent cisplatinin for a predetermined time (0, 6, 8, 12, 24 h). Thereafter, the expression level of p53 mRNA was analyzed by quantitative RT-PCR, and the expression level of p53 protein was analyzed by Western immunoblotting. […]

For `N.N.[Cl][Pt][Cl]` [cisplatin], the “expression of the p53 mRNA” value in the experiment with HCT116 cells (HCT116, 5-FU 80 μmol/L, MMC 6 μg/ml or cisplatin 5 μg/ml, 0, 6, 12 hours) is listed as “increased”. In the experiment on HCT116 cells (HCT116, cisplatin 5 μg/ml), the “expression of the vegf IresRNA” value is given as “decreased”. The “expressions of p53 mRNA and p53 protein” value in the experiment on p53 was “significant increase”.
